This is an account of results in patent publication US20240011038A1, “CYTARABINE-MODIFIED miRNA FOR TREATING CANCER” (Curamir Therapeutics, Inc., priority 2022, published 2024).

Common to all, as to type: cell-based
The test system of series [1] is MV-4-11 acute myeloid leukemia cells. Nature of the series: Cell viability of MV-4-11 AML cells exposed to modified miRNA mimics (WST-1). To be noted: MV-4-11 cells, vehicle-free transfection, dosage of 5 nM, 6 days; FIG. 3. As to the method: (§1) MV-4-11 (American Type Culture Collection; “ATCC”) AML cells were maintained in Iscove's Modified Dulbecco's Medium (IMDM) (Thermo Fisher Scientific) supplemented with 10% fetal bovine serum (“FBS”; VWR). REH ALL cells (ATCC) were maintained in RPMI-1640 Medium (Thermo Fisher Scientific) supplemented with 10% FBS.
(§2) For transfection with a vehicle, twenty-four hours before transfection, cells were plated in 6 well plates at 1×10^5 cells per well. Cells were transfected with negative control miRNA (Thermo Fisher Scientific), 5-FU miR-15a, or various versions of the ara-C modified miR-15a mimic, using Lipofectamine™ 2000 (Thermo Fisher Scientific) as directed by the manufacturer. MV-4-11 cells were transfected with 15 nM of miRNA and REH cells were transfected with 25 nM of miRNA. Twenty-four hours post-transfection, cells were replated at 2000 cells per well in 96 well plates. […]
(§3) Cell numbers were measured on days 1, 3, and 6 post transfection for cells transfected with Lipofectamine 2000 and on day 6 post transfection for vehicle free transfection, using WST-1 dye (Roche). Briefly, cells were incubated with 10 μl of WST-1 dye per 100 μl of media for 1 hour (REH) or 2 hours (MV-4-11) at 37° C. and absorbance was read at 450 nm and 630 nm. The optical density (“OD”) was calculated by subtracting the absorbance at 630 nm from that at 450 nm. […]
On the technique in general: Formazan colour is commonly taken as a measure of viable cells.

Series [2] concerns REH acute lymphocytic leukemia cells. Nature of the series: Cell viability of REH ALL cells exposed to modified miRNA mimics (WST-1). To be noted: vehicle-free transfection, 10, 5, 0.5 nM miRNA, day 6, FIG. 5. As to the method: as §1, §2, §3
Another series has as its system Wee1 gene mRNA. As to the kind of experiment: Inhibition of Wee1 expression by modified miR-15a (qRT-PCR). To be noted: MV-4-11 cells, lipofection, 15 nM miRNA, 24 h post-transfection, normalized to GAPDH, vs negative control miRNA; FIG. 7. As to the method:
Wee1 is an important cell cycle regulator and a potential target for AML therapy. Wee1 is a direct target of miR-15a with two miR-15a binding sites in the 3′ UTR of Wee1.
For transfection with a vehicle, twenty-four hours before transfection, cells were plated in 6 well plates at 1×10^5 cells per well. Cells were transfected with negative control miRNA (Thermo Fisher Scientific), 5-FU miR-15a, or various versions of the ara-C modified miR-15a mimic, using Lipofectamine™ 2000 (Thermo Fisher Scientific) as directed by the manufacturer. MV-4-11 cells were transfected with 15 nM of miRNA. Twenty-four hours post-transfection, RNA was isolated from cells using TRIzol™ (Thermo Fisher Scientific) reagent following the manufacturer's protocol. Wee1 expression was measured using qRT-PCR and normalized to GAPDH expression and calculated by the double delta threshold cycle (ΔΔCt) method.
For orientation: Quantitative PCR measures a nucleic acid by following its amplification.

Turning to “5-FU miR-15a: miR-15a mimic with 5-fluorouracil in the guide strand, unmodified passenger strand (FIG. 1F; SEQ ID NO: 1/2) (guide UAGCAGCACAUAAUGGUUUGUG; sense CAGGCCAUAUUGUGCUGCCUCA; 5-fluorouracil in guide strand; misc_feature 1..22 miR-15a guide strand; modified_base 1 OTHER; uracil or 5-fluorouracil; misc_feature 4 cytidine or cytosine arabinoside; misc_feature 7 cytidine or cytosine arabinoside; modified_base 11 OTHER; modified_base 14 OTHER; modified_base 17..19 OTHER; modified_base 21 OTHER; misc_fea; misc_feature 1..22 miR-15a passenger strand; misc_feature 1 cytidine or cytosine arabinoside; misc_feature 5..6 cytidine or cytosine arabinoside; misc_feature 15 cytidine or cytosine arabinoside;)”, in series [1], the cell killing result was “killed all cells in 6 days”. The “inhibition of cell viability (percent cell viability)” value in series [2] is recorded as “more effective than ara-C miR-15a”. The “Wee1 gene mRNA expression (relative quantity, qRT-PCR)” value in the series on Wee1 gene mRNA was “able to significantly suppress Wee1 gene mRNA expression”.
